Results reported in PubChem BioAssay (NCI).
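Cultured in 96-well plates, cells were exposed to test compound for 48 hours across five concentrations. The concentration for 50% growth inhibition is given as GI50. The concentration for full growth arrest is given as TGI.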

Tests used:
Assay in all cases: DTP human tumour cell line panel, 48 h
[1] = test system: A498 renal
[2] = test system: ACHN renal
[3] = test system: EKVX NSCLC
[4] = test system: HOP-92 NSCLC
[5] = test system: MDA-MB-231 breast
[6] = test system: MDA-MB-435
[7] = test system: RXF 393 renal
[8] = test system: SK-MEL-5 melanoma
[9] = test system: SN12C renal
[10] = test system: UACC-257 melanoma

SMILES | TGI [1] | TGI [2] | TGI [3] | TGI [4] | TGI [5] | TGI [6] | TGI [7] | TGI [8] | TGI [9] | TGI [10] | GI50 [3] | GI50 [8] | GI50 [1] | GI50 [2] | GI50 [4] | GI50 [5] | GI50 [6] | GI50 [7] | GI50 [9] | GI50 [10]
Cc1cc(S(=O)(=O)Nc2nnc3cc(C(F)(F)F)cc(C)n23)c(S)cc1Cl | 37.2 µM | > 100 µM | > 100 µM | > 100 µM | > 100 µM | > 100 µM | > 100 µM | > 100 µM | > 100 µM | > 100 µM | – | – | – | – | – | – | – | – | – | –
Cc1[nH]c(-c2ccccc2)c(-c2ccc(Cl)cc2)c1C(=O)ONC(=O)c1ccccc1 | 18.4 µM | 3.48 µM | 9.77 µM | 4.01 µM | 12.1 µM | 11.9 µM | 6.69 µM | 14.1 µM | 5.21 µM | 20.8 µM | – | – | – | – | – | – | – | – | – | –
CCOC(=O)c1sc2c(c1OC(=O)c1ccccc1)c(=O)n(-c1ccccc1)c(=S)n2-c1ccccc1 | 31 µM | > 100 µM | > 100 µM | 79.2 µM | 87.2 µM | 51.7 µM | > 100 µM | 49.7 µM | > 100 µM | > 100 µM | – | – | – | – | – | – | – | – | – | –
O=C(NCCO)c1ccc(Cl)cc1 | > 100 µM | > 100 µM | > 100 µM | > 100 µM | > 100 µM | > 100 µM | > 100 µM | > 100 µM | > 100 µM | > 100 µM | – | – | – | – | – | – | – | – | – | –
O=C(Nc1cccc(-c2cn3ccccc3n2)c1)c1ccncc1 | > 100 µM | > 100 µM | > 100 µM | > 100 µM | 98.7 µM | > 100 µM | > 100 µM | 71.4 µM | > 100 µM | 73.5 µM | – | – | – | – | – | – | – | – | – | –
COc1ccc(-c2c(C#N)c(-c3ccccc3)n(NS(=O)(=O)c3ccccc3)c(=O)c2C#N)cc1 | > 100 µM | > 100 µM | > 100 µM | > 100 µM | > 100 µM | > 100 µM | > 100 µM | > 100 µM | > 100 µM | > 100 µM | – | – | – | – | – | – | – | – | – | –
CSCCC(NC(=O)OC(C)(C)C)C(=O)NCCNc1ccc(NCCNC(=O)C(CCSC)NC(=O)OC(C)(C)C)c2c1C(=O)c1ccccc1C2=O (configuration not stated) | 21.1 µM | 30.3 µM | > 27.7 µM | 10.1 µM | 8.54 µM | 7.49 µM | 52.8 µM | 13.2 µM | 21 µM | 12.1 µM | – | – | – | – | – | – | – | – | – | –
CCCCN(c1ccccc1)c1ncnc2c1cnn2C | 71.1 µM | > 100 µM | > 100 µM | > 100 µM | > 100 µM | > 100 µM | 89.4 µM | > 100 µM | > 100 µM | 95.8 µM | – | – | – | – | – | – | – | – | – | –
COC(OC)C(O)C1OC=CC1n1cnc2c(N)ncnc21 (configuration not stated) | > 100 µM | > 100 µM | > 100 µM | > 100 µM | > 100 µM | > 100 µM | > 100 µM | > 100 µM | > 100 µM | > 100 µM | – | – | – | – | – | – | – | – | – | –
CC1(C)[C@@H]2C[C@H]1c1cnc(-c3ccccn3)cc1C2[C@@H]1c2cc(-c3ccccn3)ncc2[C@@H]2C[C@H]1C2(C)C (some centres not stated) | > 100 µM | > 100 µM | > 100 µM | > 100 µM | > 100 µM | > 100 µM | > 100 µM | > 100 µM | > 100 µM | > 100 µM | – | – | – | – | – | – | – | – | – | –
C/C=C/[C@H]1O[C@@](OC)([C@@H](C)[C@H](O)[C@H](C)[C@H]2OC(=O)/C(OC)=C/C(C)=C/[C@@H](C)[C@@H](O)[C@@H](C)[C@@H](O)[C@H](C)C/C(C)=C/C=C/[C@@H]2OC)CC(OC2CC(O)C(OC(N)=O)C(C)O2)[C@@H]1C (some centres not stated) | 21 µM | 8.27 µM | 12.8 µM | 11 µM | 12.7 µM | < 0.01 µM | 15.7 µM | < 0.0433 µM | 9.3 µM | < 0.0143 µM | – | – | – | – | – | – | – | – | – | –
COC(=O)c1cncc2c1CC1C3(C(=O)OC)C=NC(C4C(CO)=CCC43)C21C (configuration not stated) | > 100 µM | > 100 µM | > 100 µM | > 100 µM | > 100 µM | > 100 µM | > 100 µM | > 100 µM | > 100 µM | > 100 µM | – | – | – | – | – | – | – | – | – | –
O=C1C=CC(=O)c2ncccc21 | 27.4 µM | 7.98 µM | 9.86 µM | 3.25 µM | 8.06 µM | 18.5 µM | 12.8 µM | 18 µM | 16 µM | 11.2 µM | – | – | – | – | – | – | – | – | – | –
O=C1[C@@H]2Cc3c([nH]c4ccccc34)C(C3CCCCC3)N2C(=O)[C@@H]2CCCN12 (some centres not stated) | > 100 µM | > 100 µM | > 100 µM | 76.6 µM | 50.2 µM | > 100 µM | > 100 µM | 35.7 µM | 63.4 µM | 80.7 µM | – | – | – | – | – | – | – | – | – | –
O=C1c2ccccc2CC12Cc1ccc3c(c1C2)CCC3 (configuration not stated) | > 100 µM | 61 µM | 47.7 µM | 34.9 µM | 47.1 µM | 33.7 µM | 38.7 µM | 28.8 µM | > 100 µM | 30.2 µM | – | – | – | – | – | – | – | – | – | –
CC(C)(C)N1Cc2ccccc2/C(=C/Sc2ccccc2)C1=O | 35.4 µM | 32 µM | 34.2 µM | 27.8 µM | 33.9 µM | 20.1 µM | 34 µM | 20.2 µM | 23.8 µM | 31.2 µM | – | – | – | – | – | – | – | – | – | –
OC1OC(c2ccco2)C(F)(F)C(F)(F)C1(F)F (configuration not stated) | > 100 µM | > 100 µM | > 100 µM | > 100 µM | > 100 µM | > 100 µM | > 100 µM | 89.1 µM | > 100 µM | > 100 µM | – | – | – | – | – | – | – | – | – | –
N#CCc1nc(C#N)c(N)o1 | > 100 µM | > 100 µM | > 100 µM | > 100 µM | > 100 µM | > 100 µM | > 100 µM | > 100 µM | > 100 µM | > 100 µM | > 100 µM | > 100 µM | – | – | – | – | – | – | – | –
NC(N)=N/N=C/c1nc2sccn2c1[N+](=O)[O-] | > 100 µM | > 100 µM | > 100 µM | > 100 µM | 80.5 µM | 39.9 µM | 36.9 µM | 33.9 µM | > 100 µM | 31.7 µM | – | – | – | – | – | – | – | – | – | –
COc1ccc(OC)c2cc(Cc3ccc(N(C)C)cc3)c(=O)c(Cc3ccc(N(C)C)cc3)cc12 | 96.2 µM | > 100 µM | > 100 µM | > 100 µM | > 100 µM | > 100 µM | > 100 µM | > 100 µM | > 100 µM | > 100 µM | – | – | – | – | – | – | – | – | – | –
COC(=O)C(COC(=O)/C=C/c1ccc(OC(C)=O)c(OC(C)=O)c1)OC(=O)/C=C/c1ccc(OC(C)=O)c(OC(C)=O)c1 (configuration not stated) | 43.1 µM | 27.8 µM | 36.9 µM | 47.6 µM | 35.6 µM | 23.9 µM | 25.8 µM | 28.3 µM | 27.8 µM | 29.9 µM | – | – | – | – | – | – | – | – | – | –
CC[N+](C)(CC)CCN1C(=O)c2ccccc2S1(=O)=O | > 100 µM | > 100 µM | > 100 µM | > 100 µM | > 100 µM | > 100 µM | > 100 µM | > 100 µM | > 100 µM | > 100 µM | – | – | – | – | – | – | – | – | – | –
CCN(CC)CCCNc1ccc2nnn3c4ccc(O)cc4c(=O)c1c23 | 24.3 µM | 17.3 µM | 29.8 µM | 43.8 µM | 20.9 µM | 22.1 µM | 15 µM | 22.6 µM | 20.7 µM | 32.6 µM | – | – | – | – | – | – | – | – | – | –
CC1=CC[C@@H]2CC[C@]3(C)[C@H](CC[C@@H]4[C@@]5(C)CCCNC(C)(C)[C@@H]5CC[C@]43C)[C@H]2[C@@H]1C | 3.6 µM | 3.14 µM | 3.38 µM | 2.77 µM | 3.47 µM | 3.28 µM | 3.1 µM | 3.08 µM | 3.44 µM | 3.63 µM | 1.74 µM | 1.7 µM | 1.87 µM | 1.76 µM | 1.39 µM | 1.8 µM | 1.85 µM | 1.61 µM | 1.83 µM | 1.86 µM
